Experimental data taken from the NIST ThermoML archive (doi:10.1016/j.jct.2004.12.014).

How the values were obtained:
[1] = xn = mol fraction of the nth substance listed; conditions: 318.15 K, 101 kPa, Liquid
[2] = excess molar enthalpy (molar enthalpy of mixing); xn = mol fraction of the nth substance listed; conditions: 318.15 K, 101 kPa, Liquid

CCOC(=O)CC [ethyl propanoate] + CCCCCCCCC
Conditions | excess molar enthalpy, [2] [kcal/mol] | excess molar volume, [1] [m3/mol]
x1 = 0.0376 | – | 1.65e-07
x1 = 0.0817 | 0.092 | –
x1 = 0.0926 | – | 3.58e-07
x1 = 0.1719 | 0.168 | –
x1 = 0.1744 | – | 6.18e-07
x1 = 0.2554 | – | 8.2e-07
x1 = 0.2598 | 0.231 | –
x1 = 0.3255 | – | 9.43e-07
x1 = 0.3403 | 0.272 | –
x1 = 0.3925 | – | 1.022e-06
x1 = 0.4145 | 0.297 | –
x1 = 0.457 | – | 1.075e-06
x1 = 0.4797 | 0.309 | –
x1 = 0.4909 | 0.311 | –
x1 = 0.523 | – | 1.077e-06
x1 = 0.5379 | 0.31 | –
x1 = 0.5764 | 0.305 | –
x1 = 0.5826 | – | 1.066e-06
x1 = 0.5876 | 0.303 | –
x1 = 0.6277 | 0.291 | –
x1 = 0.6348 | – | 1.027e-06
x1 = 0.6791 | 0.271 | –
x1 = 0.6882 | – | 9.47e-07
x1 = 0.732 | 0.243 | –
x1 = 0.7398 | – | 8.52e-07
x1 = 0.7883 | 0.207 | 7.57e-07
x1 = 0.8344 | – | 6.26e-07
x1 = 0.8451 | 0.163 | –
x1 = 0.878 | – | 5.01e-07
x1 = 0.9016 | 0.111 | –
x1 = 0.9181 | – | 3.41e-07
x1 = 0.9517 | 0.0589 | –
x1 = 0.9584 | – | 1.81e-07

CCCCCCCCCCCCCCCCC [heptadecane] + CCC(=O)OC
Conditions | excess molar enthalpy [kcal/mol] | excess molar volume [m3/mol]
[1], x2 = 0.0755 | – | 3.32e-07
[1], x2 = 0.1644 | – | 6.94e-07
[1], x2 = 0.3049 | – | 1.182e-06
[1], x2 = 0.409 | – | 1.452e-06
[1], x2 = 0.5004 | – | 1.581e-06
[1], x2 = 0.5739 | – | 1.623e-06
[1], x2 = 0.6379 | – | 1.592e-06
[1], x2 = 0.6942 | – | 1.504e-06
[1], x2 = 0.7425 | – | 1.39e-06
[1], x2 = 0.7831 | – | 1.271e-06
[1], x2 = 0.8219 | – | 1.128e-06
[1], x2 = 0.8553 | – | 9.81e-07
[1], x2 = 0.8846 | – | 8.56e-07
[1], x2 = 0.9369 | – | 5.66e-07
[1], x2 = 0.9596 | – | 4.18e-07
[1], x2 = 0.9803 | – | 2.34e-07
[2], x2 = 0.0946 | 0.132 | –
[2], x2 = 0.2186 | 0.277 | –
[2], x2 = 0.3238 | 0.387 | –
[2], x2 = 0.4115 | 0.457 | –
[2], x2 = 0.4797 | 0.492 | –
[2], x2 = 0.5289 | 0.508 | –
[2], x2 = 0.5687 | 0.513 | –
[2], x2 = 0.5996 | 0.514 | –
[2], x2 = 0.6291 | 0.509 | –
[2], x2 = 0.6637 | 0.499 | –
[2], x2 = 0.6974 | 0.479 | –
[2], x2 = 0.7327 | 0.451 | –
[2], x2 = 0.7677 | 0.417 | –
[2], x2 = 0.8042 | 0.371 | –
[2], x2 = 0.8381 | 0.328 | –
[2], x2 = 0.8741 | 0.271 | –
[2], x2 = 0.909 | 0.214 | –
[2], x2 = 0.9409 | 0.148 | –
[2], x2 = 0.9721 | 0.0753 | –

CCCCCCCCCCCCCCCCC [heptadecane] + CCCCOC(=O)CC
Conditions | excess molar enthalpy [kcal/mol] | excess molar volume [m3/mol]
[1], x2 = 0.1135 | – | 3.06e-07
[1], x2 = 0.2186 | – | 5.48e-07
[1], x2 = 0.3079 | – | 7.39e-07
[1], x2 = 0.3903 | – | 8.52e-07
[1], x2 = 0.4652 | – | 8.98e-07
[1], x2 = 0.5331 | – | 9.21e-07
[1], x2 = 0.5915 | – | 9.16e-07
[1], x2 = 0.6482 | – | 8.91e-07
[1], x2 = 0.7001 | – | 8.35e-07
[1], x2 = 0.7497 | – | 7.85e-07
[1], x2 = 0.7938 | – | 6.9e-07
[1], x2 = 0.8335 | – | 6.09e-07
[1], x2 = 0.8704 | – | 5.1e-07
[1], x2 = 0.907 | – | 4.01e-07
[1], x2 = 0.9407 | – | 2.87e-07
[1], x2 = 0.9701 | – | 1.43e-07
[2], x2 = 0.0939 | 0.101 | –
[2], x2 = 0.1935 | 0.175 | –
[2], x2 = 0.2953 | 0.241 | –
[2], x2 = 0.3647 | 0.278 | –
[2], x2 = 0.4302 | 0.3 | –
[2], x2 = 0.4836 | 0.311 | –
[2], x2 = 0.5295 | 0.314 | –
[2], x2 = 0.5642 | 0.313 | –
[2], x2 = 0.5727 | 0.312 | –
[2], x2 = 0.5964 | 0.31 | –
[2], x2 = 0.6386 | 0.298 | –
[2], x2 = 0.6808 | 0.284 | –
[2], x2 = 0.7248 | 0.264 | –
[2], x2 = 0.7703 | 0.236 | –
[2], x2 = 0.8172 | 0.202 | –
[2], x2 = 0.8639 | 0.164 | –
[2], x2 = 0.911 | 0.116 | –
[2], x2 = 0.9568 | 0.0625 | –

CCCCCCCCCCCCCCCCC [heptadecane] + CCCOC(=O)CC
Conditions | excess molar enthalpy [kcal/mol] | excess molar volume [m3/mol]
[1], x2 = 0.0801 | – | 2.62e-07
[1], x2 = 0.1272 | – | 4.01e-07
[1], x2 = 0.2396 | – | 6.78e-07
[1], x2 = 0.3349 | – | 8.74e-07
[1], x2 = 0.4168 | – | 9.74e-07
[1], x2 = 0.4924 | – | 1.046e-06
[1], x2 = 0.5597 | – | 1.06e-06
[1], x2 = 0.6205 | – | 1.048e-06
[1], x2 = 0.6702 | – | 1.016e-06
[1], x2 = 0.7236 | – | 9.42e-07
[1], x2 = 0.7691 | – | 8.65e-07
[1], x2 = 0.81 | – | 7.81e-07
[1], x2 = 0.8486 | – | 6.76e-07
[1], x2 = 0.8816 | – | 5.66e-07
[1], x2 = 0.9135 | – | 4.36e-07
[1], x2 = 0.9437 | – | 3.04e-07
[1], x2 = 0.972 | – | 1.85e-07
[2], x2 = 0.1025 | 0.107 | –
[2], x2 = 0.2064 | 0.193 | –
[2], x2 = 0.3097 | 0.268 | –
[2], x2 = 0.4012 | 0.318 | –
[2], x2 = 0.4828 | 0.345 | –
[2], x2 = 0.5438 | 0.354 | –
[2], x2 = 0.5906 | 0.353 | –
[2], x2 = 0.6218 | 0.348 | –
[2], x2 = 0.6489 | 0.34 | –
[2], x2 = 0.6819 | 0.322 | –
[2], x2 = 0.7208 | 0.3 | –
[2], x2 = 0.7615 | 0.276 | –
[2], x2 = 0.8015 | 0.244 | –
[2], x2 = 0.8436 | 0.205 | –
[2], x2 = 0.8861 | 0.163 | –
[2], x2 = 0.9283 | 0.11 | –
[2], x2 = 0.9659 | 0.0516 | –

CCCCCCCCCCCCCCCCC [heptadecane] + CCOC(=O)CC
Conditions | excess molar enthalpy [kcal/mol] | excess molar volume [m3/mol]
[1], x2 = 0.066 | – | 2.51e-07
[1], x2 = 0.1449 | – | 5.19e-07
[1], x2 = 0.2675 | – | 8.82e-07
[1], x2 = 0.3677 | – | 1.105e-06
[1], x2 = 0.4535 | – | 1.215e-06
[1], x2 = 0.5272 | – | 1.268e-06
[1], x2 = 0.5954 | – | 1.278e-06
[1], x2 = 0.6524 | – | 1.237e-06
[1], x2 = 0.7503 | – | 1.094e-06
[1], x2 = 0.7915 | – | 9.93e-07
[1], x2 = 0.8304 | – | 8.71e-07
[1], x2 = 0.8626 | – | 7.59e-07
[1], x2 = 0.8973 | – | 6.31e-07
[1], x2 = 0.9257 | – | 4.92e-07
[1], x2 = 0.9523 | – | 3.54e-07
[1], x2 = 0.9771 | – | 1.83e-07
[2], x2 = 0.1049 | 0.125 | –
[2], x2 = 0.213 | 0.232 | –
[2], x2 = 0.3031 | 0.311 | –
[2], x2 = 0.3846 | 0.366 | –
[2], x2 = 0.4607 | 0.402 | –
[2], x2 = 0.5315 | 0.42 | –
[2], x2 = 0.5885 | 0.421 | –
[2], x2 = 0.6272 | 0.413 | –
[2], x2 = 0.6888 | 0.386 | –
[2], x2 = 0.7229 | 0.364 | –
[2], x2 = 0.7635 | 0.334 | –
[2], x2 = 0.8055 | 0.296 | –
[2], x2 = 0.8479 | 0.254 | –
[2], x2 = 0.8897 | 0.202 | –
[2], x2 = 0.9313 | 0.138 | –
[2], x2 = 0.9727 | 0.0626 | –
